Turning to `C[Si](C)(CC(CN)CC(=O)O)C1CC1` (stereo not shown), the melting point fell in the range of 151.5 to 153 °C.

Source of the values: patent US9353134B2, “Silicon-containing carboxylic acid derivative” (KEMPHYS LTD., priority 2012, dated 2016).
